Active and inactive are the calls of the source. How the calls were made is not given here.
The molecules below were run against RanGTP-importin-beta complex (human Ran / KPNB1) (assay: Ran–importin-beta interaction inhibitors, confirmation, biochemical, FRET, CFP/YFP, cell-free homogeneous (AID 2823)). Details: CFP-Ran/YFP-importin-beta FRET ratio.
In the case of `Cc1c(CC(=O)O)c(=O)oc2c(C)c3occ(-c4ccc(F)cc4)c3cc12`, the IC50 is reported as > 50 µM (inactive).
With `CN(Cc1cnc2nc(N)nc(N)c2n1)c1ccc(C(=O)N[C@@H](CCC(=O)O)C(=O)O)cc1` the IC50 was > 50 µM (inactive).
`N#Cc1cc(NCC2CCCO2)c([N+](=O)[O-])cc1C#N` (stereo not drawn) was tested, and the IC50 was > 50 µM (inactive).
In the case of `Cc1ccc(OCC(=O)N2CCCCCC2)c(C)c1`, the IC50 is reported as > 50 µM (inactive).
`C/C(=N\NC(=O)c1c(C)nc2ccccn12)c1ccc(O)cc1O` was tested, and the IC50 was > 50 µM (inactive).
For `CC(CC(F)(F)F)N1CCC(n2nccc2NC(=O)CCOc2ccccc2)CC1` (stereo not drawn), the IC50 was > 50 µM (inactive).
For `Cc1ccc(NC(=O)Cn2nc(C(F)(F)F)c3c2CCC3)cc1`, the IC50 was > 50 µM (inactive).
In the case of `O=C(O)COc1ccc(F)cc1Br`, the IC50 is reported as > 50 µM (inactive).
`O=C(c1ccco1)N1CCN(c2cc(=O)n(-c3ccc(Cl)cc3)c(=O)[nH]2)CC1` was tested, and the IC50 was > 50 µM (inactive).
`CC(=O)N(c1ccc(Cl)cc1)c1c[nH]c2ccccc12` was tested, and the IC50 was > 50 µM (inactive).
`CCCn1cnc2cc(NCc3ccc(Br)cc3)ccc21` was tested, and the IC50 was > 50 µM (inactive).
`O=C(O)c1c2c(nc3ccccc13)/C(=C/c1ccc(OC(F)F)cc1)CCC2` was tested, and the IC50 was > 50 µM (inactive).
`CCc1ccccc1N(CC(=O)NCc1ccco1)C(=O)CCC(=O)Nc1nccs1` was tested, and the IC50 was > 50 µM (inactive).
In the case of `O=C(NC1CCCCCC1)C(=S)NCCc1ccccc1`, the IC50 is reported as > 50 µM (inactive).
In the case of `c1c2c(cc3sc(N4CCOCC4)nc13)OCCO2`, the IC50 is reported as > 50 µM (inactive).
`CSc1ncccc1C(=O)OCC(=O)c1cc2ccccc2o1` was tested, and the IC50 was > 50 µM (inactive).
`COc1cc([C@@H]2[C@H]3CN(C)CC=C3C(C#N)=C(N)C2(C#N)C#N)cc2c1OCO2` showed an IC50 of 21 µM.
`CCN(CC)Cc1c(O)c(Cl)cc2c3c(c(=O)oc12)CCCC3` showed an IC50 of 20.6 µM.
For `CCCOC(=O)CSC1=C(C#N)C(c2ccccc2OCC)C(C#N)C(=O)N1` (stereo not drawn), the IC50 was > 50 µM (inactive).
In the case of `CCOC(=O)c1c(NC(=O)C2CCCCC2)sc2c1CCN(CC)C2`, the IC50 is reported as > 50 µM (inactive).
With `OCCC1CN(Cc2cccn2-c2cccnc2)CCN1Cc1ccc(F)cc1` (stereo not drawn) the IC50 was > 50 µM (inactive).
For `CCC(c1nnnn1C1CCCC1)N1CCC(C(N)=O)CC1` (stereo not drawn), the IC50 was > 50 µM (inactive).
`Cc1c(C=O)cnn1CCC(=O)O` was tested, and the IC50 was > 50 µM (inactive).
In the case of `COc1ccc(C(=O)Nc2ccc(S(=O)(=O)Nc3onc(C)c3C)cc2)cc1`, the IC50 is reported as > 50 µM (inactive).
With `Cc1ccc(N2CCN(c3ccc(C)cc3)C2c2ccccn2)cc1` the IC50 was > 50 µM (inactive).
In the case of `CCOC(=O)/C(=N\Nc1ccc(C(C)=O)cc1)c1csc(Nc2ccccc2)n1`, the IC50 is reported as > 50 µM (inactive).
`Cc1nn(C)c(Oc2ccc(Cl)cc2)c1C(=O)O` was tested, and the IC50 was > 50 µM (inactive).
With `O=c1[nH]c2cc(Br)cnc2nc1/C=C(\O)c1ccc(F)cc1` the IC50 was > 50 µM (inactive).
For `CCOc1ccccc1NC1=CC(=O)CC(c2ccccc2)C1` (stereo not drawn), the IC50 was > 50 µM (inactive).
`C#CCOc1ccc(C2C3=C(CC(C)(C)CC3=O)N(CC(=O)O)C3=C2C(=O)CC(C)(C)C3)cc1OC` was tested, and the IC50 was 32 µM.
`Cc1ccc(N=Cc2cc3c(cc2[N+](=O)[O-])OCO3)cc1[N+](=O)[O-]` was tested, and the IC50 was > 50 µM (inactive).
Work on `Cc1ccc(-n2c(=O)c(C#N)cc3c(=O)n4ccccc4nc32)cc1` yielded an IC50 of 1.99 µM.
Work on `CCCc1cc(=O)oc2c(CN3CCCC3)c(O)c(Cl)cc12` yielded an IC50 of 27.1 µM.
With `C=CCn1c(C)c(C(C)=O)c(N2CCN(C(c3ccccc3)c3ccccc3)CC2)nc1=S` the IC50 was > 50 µM (inactive).
`COc1ccc(S(=O)Cc2ccc(C(=O)NC3CC3)o2)cc1` (stereo not drawn) was tested, and the IC50 was > 50 µM (inactive).
`Oc1nc(Nc2ccccc2)sc1/C=C1\C=Nc2ccccc21` was tested, and the IC50 was > 50 µM (inactive).
`COc1cc2c(cc1OC)CN(Cc1cc(=O)oc3c(C)c(C)ccc13)CC2` was tested, and the IC50 was > 50 µM (inactive).
`Cc1noc(C)c1C(=O)Nc1sc2c(c1C(N)=O)CCC2` was tested, and the IC50 was > 50 µM (inactive).
For `CCc1ccc(C(=O)CSc2ncn[nH]2)cc1`, the IC50 was > 50 µM (inactive).
In the case of `COc1ccc(-n2cnc3cc(NCc4cccs4)ccc32)cc1`, the IC50 is reported as > 50 µM (inactive).
For `Cc1ccc(S(=O)(=O)CC(=O)N(CCCN(C)C)c2nc3ccc(C)cc3s2)cc1`, the IC50 was > 50 µM (inactive).
For `CCCn1c(=N)c(C(=O)NCc2ccc3c(c2)OCO3)cc2c(=O)n3cccc(C)c3nc21`, the IC50 was 10.2 µM.
For `COc1ccc(-c2c(C)c3ccc(O)cc3oc2=O)cc1OC`, the IC50 was 37.2 µM.
`COc1cccc(-c2coc3c(C)c4oc(=O)c(CC(=O)O)c(C)c4cc23)c1` was tested, and the IC50 was > 50 µM (inactive).
`Cc1ccc(S(=O)(=O)NCCc2cn3nc(C)c(C)nc3n2)cc1C` showed an IC50 of 33.3 µM.
With `CC1(C)CC(=O)C/C(=N\NC(=O)Cc2ccccc2)C1` the IC50 was > 50 µM (inactive).
With `Cc1cc2c(c(=O)n1C1CC1)C(c1cccc(Cl)c1)C(C#N)=C(N)O2` (stereo not drawn) the IC50 was > 50 µM (inactive).
`CN(C)/C=C/C(=O)/C=C/c1ccc(Cl)cc1` was tested, and the IC50 was > 50 µM (inactive).
With `CC(C)(C)NC(=O)C(c1ccco1)N(Cc1ccc(F)cc1)C(=O)c1snc(C(N)=O)c1N` (stereo not drawn) the IC50 was > 50 µM (inactive).
`COc1ccc(NC(=O)N2CCCCCC2)cc1` was tested, and the IC50 was > 50 µM (inactive).
With `N#C/C(=C\c1ccc(N2CCOCC2)o1)C(=O)NC1CCCCC1` the IC50 was 2.76 µM.
For `CN1CC2=CC(O)CC3Oc4c(O)ccc(c4[C@]23C)C1` (stereo partly drawn), the IC50 was > 50 µM (inactive).
In the case of `C/C(=N\OCC(=O)OCC(=O)NC(=O)c1ccccc1)c1ccc2c(c1)OCO2`, the IC50 is reported as > 50 µM (inactive).
Molecule `COc1cc(/C(O)=C(\C#N)c2nc3ccccc3[nH]2)cc(OC)c1OC` has an IC50 of 15.5 µM.
In the case of `CN(C)Cc1c(O)ccc2c3c(c(=O)oc12)CCCCC3`, the IC50 is reported as 24.6 µM.
For `O=C(O)c1ccccc1C(=O)Nc1ccc(Br)c2cccnc12`, the IC50 was > 50 µM (inactive).
`CCN1CCC2(CC1)C(C#N)=C(N)Oc1c2sc2nc(C)cc(C)c12` was tested, and the IC50 was > 50 µM (inactive).
`Cc1cccc(C(=O)Nc2sc(C)c(-c3ccccc3)c2C#N)c1` was tested, and the IC50 was > 50 µM (inactive).
`Cc1ccc(OCC(=O)c2cc(C)n(CC(F)(F)F)c2C)c([N+](=O)[O-])n1` was tested, and the IC50 was > 50 µM (inactive).
`CCC(=O)Nc1c(S(=O)(=O)c2ccccc2)c2nc3ccccc3nc2n1Cc1ccccc1` showed an IC50 of 20.9 µM.
`N#Cc1c2ncn(CC(=O)c3ccc(Br)cc3)c(=O)c2c2n1CCC2` was tested, and the IC50 was > 50 µM (inactive).
In the case of `CN1CCCN(C(=O)Cc2c(Cl)cccc2Cl)c2nc3ccccc3nc21`, the IC50 is reported as 36.5 µM.
For `O=C(N/N=C/c1ccc(-c2ccccc2Cl)o1)c1ccccc1`, the IC50 was > 50 µM (inactive).
`CCCn1nc(NC(=O)CC(C)C)c2cc3cccc(C)c3nc21` showed an IC50 of 5.82 µM.
For `Cn1nnnc1SCC(=O)Nc1nn(-c2ccccc2)nc1C(N)=O`, the IC50 was > 50 µM (inactive).
`COC(=O)c1cc2c(ccn2C)n1C` was tested, and the IC50 was > 50 µM (inactive).
For `CCn1c(SCC(=O)N(Cc2ccccc2)C2CCS(=O)(=O)C2)nc2ccccc2c1=O` (stereo not drawn), the IC50 was > 50 µM (inactive).
For `Oc1ccccc1/C=N/Nc1cc(N2CCCC2)nc(N2CCCC2)n1`, the IC50 was > 50 µM (inactive).
For `Cc1ccc2cc(C#N)c(N3CCCN(C(=O)C4CCCO4)CC3)nc2c1` (stereo not drawn), the IC50 was 20.5 µM.
In the case of `COc1ccccc1N1CCN(C(=O)/C=C/c2ccc(C)cc2)CC1`, the IC50 is reported as > 50 µM (inactive).
`CCN(CC(=O)Nc1cccc(S(=O)(=O)N2CCCCC2)c1)Cc1ccccc1` was tested, and the IC50 was > 50 µM (inactive).
In the case of `Cc1ccc(C2C(C#N)=C(N)N(c3cccnc3)C3=C2C(=O)CCC3)c(C)c1` (stereo not drawn), the IC50 is reported as > 50 µM (inactive).
`COc1ccc(/C=N/NC(=O)c2sc3nc(C)cc(C)c3c2N)cc1` gave an IC50 of 21 µM.
